Columns and labels:
[1] = test system: GFP-tagged FtsZ in E. coli JM109 WM647; assay: Z-ring visualization in E. coli cells; type: cell-based; conditions: 48 µM compound, 4 h at 37°C
Description: A culture of E. coli JM109 WM647 containing the IPTG-inducible plasmid for the overexpression of green fluorescence protein (GFP)-tagged FtsZ was grown in LB medium supplemented with 30 µg/mL of chloramphenicol. After overnight incubation, a sample of the culture was diluted to 1% in the LB medium containing different concentrations of the test compound and 40 µM of IPTG. After 4 h incubation at 37°C, the E. coli cells were fixed, harvested and resuspended in PBS buffer containing 0.25% of agarose. 10 µL of sample mixture were added to a pretreated microscopic slide with 0.1% (w/v) poly-L-lysine and visualized using a fluorescence microscope at 60× oil immersion magnification with a standard FITC filter set. The images were captured using an Olympus Bio Imaging Navigator FSX 100 microscope.

[2] = test system: B. subtilis strain 168 cells; assay: Bacterial morphology and membrane staining studies; type: cell-based; conditions: 4 µM compound
Description: The B. subtilis strain 168 cells were grown in LB medium. The cultures at an A600 of 0.01 from an overnight culture were inoculated in the same medium containing different concentrations of the test compounds and grown at 37°C for 4 h. The cells for morphology studies were harvested and resuspended in 100 µL of PBS (phosphate buffered saline) buffer containing 0.25% agarose. For membrane staining, the B. subtilis cells were further incubated with 1.6 µM of FM 4–64 for an additional 30 min at 37°C without shaking before harvested and resuspended in 100 µL PBS buffer containing 0.25% agarose. 10 µL of the suspension mixture were then placed on a microscopic slide pretreated with 0.1% (w/v) poly-L-lysine and the morphology of the bacterial cells was observed under a phase-contrast optical microscope at 40× magnification. The images were captured using an Olympus Bio Imaging Navigator FSX 100 microscope.

[3] = test system: Gram-positive bacteria, including methicillin-resistant S. aureus and vancomycin-resistant E. faecium; assay: Antimicrobial susceptibility assay, summary over Gram-positive bacteria; type: cell-based; conditions: Staphylococcus aureus; Gram-positive bacteria incl. MRSA and VREF
Description: The bacterial strains S. aureus ATCC 29213, S. aureus ATCC 29247, S. aureus ATCC BAA-41, E. faecium ATCC 49624, E. faecium ATCC 700221, E. faecalis ATCC 29212, S. epidermidis ATCC 12228, E. coli ATCC 25922, and K. pneumoniae ATCC BAA-1144 used in the antimicrobial susceptibility assays were purchased from American Type Culture Collection (ATCC, USA). B. subtilis strain 168 was already available in our in-house collection. E. coli JM109 WM647 was kindly provided by Dr. W. Margolin (University of Texas-Houston Medical School). FM 4–64 was purchased from Invitrogen (Eugene, Oregon). All other chemicals and reagents were purchased from Sigma-Aldrich. Stock solutions were prepared in DMSO. The final percentage of DMSO in the assays was 1% (v/v) for all experiments.
Antimicrobial susceptibility tests were conducted in 96-well microplates using the broth microdilution procedure described in the Clinical and Laboratory Standards Institute (CLSI) guidelines. […] After incubation for 18 h at 37°C, the absorbance at 600 nm (A600) was recorded using a microplate reader (Bio-Rad laboratory Ltd., UK) and the percentage of bacterial cell inhibition with respect to vehicles (1% DMSO) was calculated. […]

[4] = biological target: T1, S. aureus FtsZ (Staphylococcus aureus, UniProt P0A031); assay: Transmission electron microscopy of FtsZ polymers; type: biochemical; conditions: FtsZ 12 µM, TEM
T1 construct: made in house; host or cells: E. coli BL21(DE3)
T1 sequence (P0A031 1-390): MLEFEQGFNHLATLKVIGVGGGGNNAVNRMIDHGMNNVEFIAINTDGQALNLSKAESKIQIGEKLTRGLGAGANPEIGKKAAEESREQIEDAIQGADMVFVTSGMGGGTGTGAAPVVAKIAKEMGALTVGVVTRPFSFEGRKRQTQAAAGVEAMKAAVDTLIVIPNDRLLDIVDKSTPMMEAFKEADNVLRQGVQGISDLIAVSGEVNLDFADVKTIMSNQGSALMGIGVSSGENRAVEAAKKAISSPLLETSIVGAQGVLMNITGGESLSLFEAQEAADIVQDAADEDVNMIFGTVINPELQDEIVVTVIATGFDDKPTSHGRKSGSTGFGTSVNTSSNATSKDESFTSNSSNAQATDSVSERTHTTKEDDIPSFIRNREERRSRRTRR
Description: E. coli BL21(DE3) cells were transformed with the pRSET-A-S vector carrying S. aureus FtsZ with a 6-histidine tag attached at its N-terminus under the control of a T7 promoter. […] When the OD600 reached 0.8, protein expression was induced with 0.4 mM isopropyl-β-D-thiogalactopyranoside (IPTG) for 4 h. Cells were harvested by centrifugation at 9000 rpm for 20 min at 4°C. The cell pellet was resuspended in 20 mL of solubilization buffer (50 mM Tris-HCl, 150 mM NaCl, 1 mM PMSF and 1 mM EDTA, pH 7.4) and then lysed with 1 mg/mL of lysozyme. The mixture was incubated for 1 h on ice. The cells were disrupted by sonication and the crude lysate obtained was centrifuged at 13,000 rpm for 1 h at 4°C. The supernatant containing 6-histidine tagged S. aureus FtsZ was collected and loaded onto a nickel charged HiTrap chelating column pre-equilibrated with starting buffer (20 mM sodium phosphate buffer, 0.5 M NaCl, pH 7.4). The column was then washed with 8 column volumes of the starting buffer to remove the unbound proteins, and the histidine-tagged enzyme was eluted by a linear gradient of 0−0.2 M imidazole. Fractions containing S. aureus FtsZ were pooled, buffer-exchanged with 20 mM NH4HCO3 (pH 8.0) at 4°C, lyophilized, and stored at −20°C. A stock solution of S. aureus FtsZ for the subsequent bioassay was prepared from the lyophilized powder. […]

SMILES	Z-ring formation / localization of GFP-tagged FtsZ [1]	cell length of B. subtilis ([2]; 4 h at 37°C, compared to untreated cells)	perturbation of the cell membrane (FM 4-64 staining) ([2]; B. subtilis 168, compared to untreated cells)	MIC [3]	reduction of the thickness of the bundles of FtsZ protofilaments ([4]; 4 µM compound)	reduction of the thickness of the bundles of FtsZ protofilaments ([4]; 8.8 µM compound)
COc1ccc2cc3[n+](cc2c1OCCCOc1ccc(Cl)cc1)CCc1cc2c(cc1-3)OCO2 [Compound 2]	caused mislocalization of the FtsZ protein	significantly increased	did not induce any detectable perturbation	2 to 4 µg/mL	70%	
COc1ccc2cc3[n+](cc2c1OCCCOc1ccccc1)CCc1cc2c(cc1-3)OCO2 [Compound 1]						60%
